Experimental data reported in patent US20240229155A1, “M[…] FOR THE TREATMENT OF GLIOBLASTOMA AND OTHER CANCERS” (Duke University, priority 2021, published 2024).
“Also recorded” adds a separate entry of the source.

Legend:
GBM cell suspensions = assay: Cytokine secretion of CD14-separated GBM cell suspensions after 2′3′-cGAMP; assay type: cell-based, human; conditions: GBM cell suspensions separated by CD14; 48 h
[1] = system: GBM tissue slice cultures; conditions: ex vivo GBM tissue slice cultures (Brown et al., 2021); cited from earlier work
[2] = system: cGAS/STING DNA sensing pathway; assay: Response of GBM cell lines to cGAS (ISD) and STING (cGAMP) agonists, Western blot; assay type: cell-based, human
Description: (§1) Western Blots: Cells were washed 2× with ice cold 1×PBS and lysed on ice with RIPA lysis buffer, containing protease/phosphatase inhibitors, and benzonase. Lysates were spun down for 15 min 14,000×g at 4 degrees C. Protein was denatured, ran on 4-12% NuPage Bis-Tris gels in 1×MOPS buffer, and transferred to PVDF membrane. The membrane was blocked in 5% Blotting grade blocker (BioRad 170-6404) dissolved in 1×TBS 0.1% TWEEN. Primary antibody was added according to manufacturer's protocol and incubated overnight at 4° C. Membranes were then incubated with secondary HRP antibody and screened with Supersignal Pico ECL. A ChemiDoc MP (BioRad) and an iBright 1500FL imager (ThermoFisher) were used to detect the ECL signal.
Protein Isolation and Western Blotting: Cells were washed 2× with ice cold 1×PBS and lysed on ice with RIPA lysis buffer, containing protease/phosphatase inhibitors, and benzonase. Lysates were spun down for 15 min at 14,000×g at 4° C. Protein was denatured at 95° C. for 5 min, ran on 4-12% NuPage Bis-Tris gels in 1×MOPS buffer, and transferred to PVDF membrane. The membrane was blocked in 5% Blotting grade blocker (BioRad) dissolved in 1×TBS 0.1% TWEEN20. Primary antibody was added according to manufacturer's protocol and incubated overnight at 4° C. Membranes were incubated with secondary HRP antibody (Cell Signaling) and screened with Supersignal Pico ECL (ThermoFisher). […]

[3] = system: GBM tissue slice cultures; assay: Ex vivo GBM slice culture assay with 2′3′-cGAMP; assay type: cell-based, human; conditions: 5 μg/ml, 48 h, TAMC vs tumor cells
Description: GBM slice culture assay: Surgically resected, de-identified newly diagnosed GBM tissue was acquired under a Duke IRB approved protocol within hours of resection. Slice culture studies in this manuscript are extended/additional analyses of slice culture data sets reported in a prior study where the pattern of PRR signaling vs virotherapy was compared (Brown et al., 2021). A portion (˜25%) of fresh tissue was analyzed by flow cytometry to determine relative immune cell subset densities using the following flow cytometry panel after 1:20 Human Tru-Stain FcX treatment (BioLegend): CD45-BUV395 (BD Biosciences), CD14-BV421, CD33-BV510, CD49d-BV605, HLA-DR-BV786, CD31-FITC, CD3/19-BUV737, CD11b-APC, CD16-BV711, CD15-APC-fire7, and either CD155-PE or isotype control-PE antibody (all BioLegend); viability stain (7-AAD, BioLegend) was added after staining. Fresh remaining tissue was sliced into quarters, followed by slicing to −2 mm diameter fragments with a #10 scalpel (Hill-Rom). Slices were cultured in RPMI-1640 (Invitrogen) supplemented with 10% FBS (Sigma-Aldrich), 100 ng/ml EGF (R&D Biosystems); 5 μg/ml insulin (Gibco); 100 ng/ml hydrocortisone (Sigma-Aldrich). […] Supernatant cytokines were measured using the Human Antiviral Legendplex kit and Human Pro-inflammatory Chemokine kit (both BioLegend), per manufacturer's instructions. […]

[4] = system: STING promoter CpG site cg16983159; assay: cg16983159 site-specific methylation qPCR assay after decitabine treatment of GBM cell lines; assay type: cell-based, human; conditions: 250 nM decitabine for 5 days vs DMSO; GBM cell lines with high STING promoter methylation
Description: (§2) Decitabine Treatment: Decitabine was dissolved in DMSO to produce a stock concentration of 10 mM. This stock concentration was diluted directly before each treatment at a 1:100 ratio with 1×PBS to create the working solution with a concentration of […].
(§3) Cells were seeded at density of 30,000 cells/well in 6-well plates. Each cell line was seeded in 2 mL of the same media in which they were cultured (cells were cultured in media according to ATCC). The following day (Day 0), a volume of decitabine working solution was added directly to the wells to reach the desired concentration. In the DMSO control wells, DMSO was diluted 1:100 in PBS, with the same amount of DMSO:PBS solution added as that of the decitabine condition. […]
STING Methylation qPCR Methods: Bisulfite conversion of 25 ng to lug gDNA was done using the EpiTect Bisulfite Kit (Qiagen 59104) following manufactures protocol. […] Percent methylation was calculated as 1/(1+1/(2^-ΔCt))×100 with ΔCt=FAM −VIC. […]
cg16983159 site-specific methylation qPCR assay: A site-specific qPCR assay for measuring cg16983159 methylation was developed using the method described by Yu et al. (Yu et al., 2019). […] Percent methylation was calculated as 100%×1/1+2ΔCt where ΔCt=FAM−VIC. […]

DNMT1 = biological target: T1, DNMT1 (Homo sapiens, UniProt P26358); assay: Western blot of DNMT1 after decitabine treatment of GBM cell lines; assay type: cell-based; conditions: 250 nM decitabine for 5 days vs DMSO; GBM cell lines with high STING promoter methylation
T1 construct: Western blot analysis showing DNMT1 and STING expression following decitabine or DMSO treatment; endogenous in cells; host or cells: GBM/glioma cell lines
T1 sequence (P26358 whole entry): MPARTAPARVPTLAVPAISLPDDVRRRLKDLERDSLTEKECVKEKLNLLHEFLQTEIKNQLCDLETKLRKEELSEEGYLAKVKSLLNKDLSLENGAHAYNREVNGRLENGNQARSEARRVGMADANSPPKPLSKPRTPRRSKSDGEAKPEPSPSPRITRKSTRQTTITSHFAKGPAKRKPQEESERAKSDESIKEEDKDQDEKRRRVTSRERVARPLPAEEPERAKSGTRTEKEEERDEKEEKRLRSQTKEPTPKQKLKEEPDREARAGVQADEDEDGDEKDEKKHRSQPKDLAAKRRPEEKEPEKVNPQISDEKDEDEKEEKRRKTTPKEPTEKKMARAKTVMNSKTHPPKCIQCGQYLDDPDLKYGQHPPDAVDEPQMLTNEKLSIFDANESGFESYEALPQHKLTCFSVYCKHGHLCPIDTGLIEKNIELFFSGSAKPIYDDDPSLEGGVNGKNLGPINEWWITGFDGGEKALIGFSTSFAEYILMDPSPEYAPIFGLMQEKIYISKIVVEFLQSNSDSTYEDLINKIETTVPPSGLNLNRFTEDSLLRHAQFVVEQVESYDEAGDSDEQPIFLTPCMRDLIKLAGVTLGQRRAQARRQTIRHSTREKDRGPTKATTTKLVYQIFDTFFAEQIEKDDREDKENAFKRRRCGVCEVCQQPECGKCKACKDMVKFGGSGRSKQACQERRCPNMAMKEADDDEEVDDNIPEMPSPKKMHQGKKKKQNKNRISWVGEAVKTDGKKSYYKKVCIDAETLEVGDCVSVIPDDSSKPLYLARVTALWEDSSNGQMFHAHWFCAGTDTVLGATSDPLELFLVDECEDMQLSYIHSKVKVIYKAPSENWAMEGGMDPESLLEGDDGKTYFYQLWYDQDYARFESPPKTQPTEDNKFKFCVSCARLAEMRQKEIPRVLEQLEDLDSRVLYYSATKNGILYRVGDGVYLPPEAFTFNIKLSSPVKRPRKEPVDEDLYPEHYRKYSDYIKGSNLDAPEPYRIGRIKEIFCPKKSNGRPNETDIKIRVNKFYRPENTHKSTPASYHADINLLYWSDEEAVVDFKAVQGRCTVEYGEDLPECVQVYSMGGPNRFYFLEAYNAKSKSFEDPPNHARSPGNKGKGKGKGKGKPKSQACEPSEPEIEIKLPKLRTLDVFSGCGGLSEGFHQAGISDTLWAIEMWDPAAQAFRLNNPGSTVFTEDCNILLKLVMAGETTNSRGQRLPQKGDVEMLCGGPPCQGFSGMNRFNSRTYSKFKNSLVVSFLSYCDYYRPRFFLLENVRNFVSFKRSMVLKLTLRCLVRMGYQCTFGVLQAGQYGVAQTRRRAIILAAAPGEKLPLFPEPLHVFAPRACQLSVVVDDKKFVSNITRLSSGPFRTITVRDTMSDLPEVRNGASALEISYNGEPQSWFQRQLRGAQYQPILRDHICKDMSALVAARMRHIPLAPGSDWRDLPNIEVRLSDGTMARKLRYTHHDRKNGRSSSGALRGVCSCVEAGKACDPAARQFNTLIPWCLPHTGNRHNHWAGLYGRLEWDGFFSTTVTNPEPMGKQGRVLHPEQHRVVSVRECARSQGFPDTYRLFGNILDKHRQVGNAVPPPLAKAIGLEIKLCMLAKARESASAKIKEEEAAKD
Description: (§4) Cells were seeded at density of 30,000 cells/well in 6-well plates. Each cell line was seeded in 2 mL of the same media in which they were cultured (cells were cultured in media according to ATCC). The following day (Day 0), a volume of decitabine working solution was added directly to the wells to reach the desired concentration. In the DMSO control wells, DMSO was diluted 1:100 in PBS, with the same amount of DMSO:PBS solution added as that of the decitabine condition. On days 1-5, the media was refreshed, such that the media being added to the wells contained the respective decitabine/DMSO concentration and were prepared immediately before their addition. The cells were harvested for protein on day 6.
as §1, with “A ChemiDoc MP (BioRad) and an iBright 1500FL imager (ThermoFisher) were used to detect the ECL signal.” left out

[5] = system: CpG sites in a ~400 nucleotide window centered on cg16983159; assay: Semi-quantitative methylation sequencing assay of bisulfite-treated glioma cell lines; assay type: cell-based, human; conditions: LN229 and U138 cells, decitabine vs DMSO
Description: Semi-quantitative methylation sequencing assay: Bisulfite treated DNA was PCR amplified for 40 cycles at 62° C. annealing temperature. Amplification reaction—10 μM of each primer, 25 mM MgCl2, 2.5 mM dNTPs, lx buffer, 0.7U HotStarTaq (Qiagen). Amplicons were sent to Azenta for purification and sanger sequencing with difficult template. Sequence traces were aligned. Percent methylation at the CpGs in the amplicons were estimated by comparing the C peak to the T peak.
(§5) Cell treatment with decitabine: Decitabine (Millipore-Sigma) was dissolved in DMSO to stock concentration of 10 mM and diluted directly before each treatment in 1×PBS. Cells were seeded at 3×10^4 cells/well in 6-well plates (protein) or 1.7×10^5 cells in 10 cm dishes (RNA/DNA). Matched concentrations of DMSO was used as a control. Media was refreshed with treatment daily for 5 days. Cells were harvested for protein, RNA and DNA on day 6, or treated with 2′3′-cGAMP for an additional 4 and 24 h and harvested for protein.

STING = assay: Western blot of STING after decitabine treatment of GBM cell lines; assay type: cell-based, human; conditions: 250 nM decitabine for 5 days vs DMSO
Description: as §4
as §1, with “A ChemiDoc MP (BioRad) and an iBright 1500FL imager (ThermoFisher) were used to detect the ECL signal.” left out

cGAS = assay: Western blot of cGAS after decitabine treatment of GBM cell lines; assay type: cell-based, human; conditions: 250 nM decitabine for 5 days vs DMSO
Description: as §4
as §1, with “A ChemiDoc MP (BioRad) and an iBright 1500FL imager (ThermoFisher) were used to detect the ECL signal.” left out

STING pathway = assay: Western blot for STING pathway activation: decitabine pretreatment followed by 2′3′-cGAMP; assay type: cell-based, human; conditions: for STING pathway activation (pTBK1 and pIRF3 expression) in response to cGAMP: 250 nM decitabine for 5 days, then 2′3′-cGAMP, protein at 4 h and 24 h, cell lines previously unresponsive to cGAMP
Description: as §1
Protein Isolation and Western Blotting: Cells were washed 2× with ice cold 1×PBS and lysed on ice with RIPA lysis buffer, containing protease/phosphatase inhibitors, and benzonase. Lysates were spun down for 15 min at 14,000×g at 4° C. Protein was denatured at 95° C. for 5 min, ran on 4-12% NuPage Bis-Tris gels in 1×MOPS buffer, and transferred to PVDF membrane. The membrane was blocked in 5% Blotting grade blocker (BioRad) dissolved in 1×TBS 0.1% TWEEN20. Primary antibody was added according to manufacturer's protocol and incubated overnight at 4° C. Membranes were incubated with secondary HRP antibody (Cell Signaling) and screened with Supersignal Pico ECL (ThermoFisher). A ChemiDoc MP (BioRad) and an iBright 1500FL imager (ThermoFisher) were, used to detect the ECL signal. Primary antibodies were used to the following targets: pSTING (Ser366), STING, cGAS, pTBK1 (Ser172), TBK1, pIRF3 (Ser396), IRF3, pSTAT1 (Tyr701), STAT1, IFIT1, ISG15, DNMT1, β-actin (Cell Signaling), IRF3 (Biolegend).
as §5, with “Cells were harvested for protein, RNA and DNA on day 6, or treated with 2′3′-cGAMP for an additional 4 and 24 h and harvested for protein.” left out

STING (TMEM173) mRNA = assay: STING mRNA expression (qPCR) after decitabine treatment of GBM cell lines; assay type: cell-based, human; conditions: 250 nM decitabine for 5 days vs DMSO, normalized to beta actin
Description: as §2
as §3, with “concentration.” for “concentration. In the DMSO control wells, DMSO was diluted 1:100 in PBS, with the same amount of DMSO:PBS solution added as that of the decitabine condition.”
Protocol for mRNA Expression: RNA expression was measured by converting 250 ng to lug of RNA to cDNA with the iScript cDNA conversion kit (BioRad Cat #1708891) in 20 μL total. […]
20× PrimePCR Primers targeting B-actin (BioRad #qHsa CED0036269), and TMEM173 (BioRad #qHsa CID00010565), were used. Fold change (2^(−Delta Delta Ct) was calculated using B-actin as the housekeeping gene.
Quantitative gene expression analysis: RNA/DNA were co-extracted from cells using Qiagen AllPrep DNA/RNA/miRNA Universal Kit mini kit (Qiagen) for decitabine experiments, and Quick-DNA/RNA™Miniprep Kit for baseline cell expression/methylation, following the manufacturer's protocols. RNA expression was measured by converting 250 ng to 1 μg RNA to 25 cDNA with the iScript cDNA conversion kit (BioRad). […]

Compound	CXCL10 induction (GBM cell suspensions)	TNF induction (GBM cell suspensions)	CXCL10 induction [1]	type I IFNs induction [1]	downstream response (pTBK1, pIRF3) to STING agonist ([2]; A172 cell line, high baseline STING expression)	downstream response (pTBK1, pIRF3) to STING agonist ([2]; U138MG cell line, no STING expression)	IFIT1 induction (flow cytometry) [3]	STING cg16983159 methylation [4]	DNMT1 expression (Western blot) (DNMT1)	methylation state of CpG sites around cg16983159 (bisulfite sequencing) [5]	STING protein expression (STING)	cGAS expression (Western blot) (cGAS)	STING pathway activation (pTBK1 and pIRF3 expression) in response to cGAMP (STING pathway)	STING pathway activation (pTBK1 and pIRF3 expression) in response to cGAMP (STING pathway; listed as decitabine)	markers of downstream IFN activation (pSTAT1, IFIT1, ISG15) (STING pathway; decitabine pretreatment for 5 days followed by cGAMP)	STING mRNA expression (STING (TMEM173) mRNA)
Nc1nc2c(ncn2[C@@H]2O[C@@H]3COP(=O)(O)O[C@H]4[C@@H](O)[C@H](n5cnc6c(N)ncnc65)O[C@@H]4COP(=O)(O)O[C@@H]2[C@@H]3O)c(=O)[nH]1 [cGAMP, 2′3′-cGAMP]	occurred only in CD14+ containing glioma cell suspensions	occurred only in CD14+ containing glioma cell suspensions	induced	induced	strong downstream response	failed to activate pTBK1 or pIRF3	induced selectively in TAMC	–	–	–	–	–	–	–	–	–
Nc1ncn([C@H]2C[C@H](O)[C@@H](CO)O2)c(=O)n1 [Decitabine, 5-azadeoxycytidine]	–	–	–	–	–	–	–	decreased	significant suppression; also recorded: suppressed	cg16983159 and upstream CpG sites are demethylated, while downstream sites are not	increased	induces	restores STING signaling	reactivation or enhancement of the pathway	induced	increased
